Experimental data reported in patent US4174406A, “Terpenylaminoalkanol fish toxicants” (priority 1977, dated 1979).
Values after ≈ are worked out from the molar mass of the structure shown.

What was measured:
Brown trout = assay: Laboratory fish toxicity test (Table 1); type: in vivo, Salmo trutta; details: tech, 12 C, soft water
Description: (§1) Fish were obtained from state and federal hatcheries and maintained prior to testing by a trained fish culturist. Fish of total length 2-5 cm were used in laboratory tests while for outdoor tests small fish (4-6 cm in length) and larger carp and buffalo (Ictiobus cyprinellus) were used.
(§2) In all tests 10 fish of each were exposed to selective concentrations of the toxicant. Mortalities were observed and recorded at 1,2 and 6 hours on the first day and once daily thereafter, during 96 hour exposure.
(§3) Laboratory tests were also conducted in soft water 12° C. wherein the toxicant was evaluated against fifteen species of fish including both cold and warm water varieties. In Table 1, the LC 50 toxicity values for N-(2-hydroxyethyl) digeranylamine is shown for various species. LC50 is defined as the amount (mg/liter) of toxicant required to kill 50 percent of the particular fish species at 95% confidence interval.

Fathead minnow [1] = assay: Outdoor plastic pool test (Table 3); type: in vivo, Pimephales promelas; details: for % kill: 96 hour, 50% formulation (hydrochloride salt)
Description: (§4) N-(2-hydroxyethyl) digeranylamine was tested as a selective fish toxicant in outdoor pools stocked with various fish species and lined with black plastic using 50% water soluble formulations (hydrochloride salt). The formulation was added to each of four pools of 4,000-liter capacity at concentrations of 0.10, 0.15, 0.20, and 0.30 mg/liter. Another pool containing the same number, size, and species of fish served as a control. The test water had algal blooms, a pH of about 8.5, and a total hardness of about 200 mg/liter as CaCo3. The temperature was cool enough (15°-16°C.) to permit the use of trout.
as §1, §2
(§5) Outdoor pool tests were conducted using 50% formulation of the toxicant N-(2-hydroxyethyl) digeranylamine as indicated in Example 8. […] If selective control of white sucker and common carp is desired in an environment which includes rainbow trout, one should employ an effective concentration of toxicant which is at least as great as 0.05 mg/liter but less than 0.1 mg/liter. As a practical fishery practice in the northern United States and Canada, rainbow trout are not usually stocked in bodies of water containing the common carp species; the habitat conditions including water temperature and available oxygen of these species are usually quite different. Common carp and rainbow trout have quite different oxygen and temperature requirements and these differences generally preclude both species cohabitating under natural conditions. In this case the useful range to control common carp and white sucker can be much broader, i.e. 0.1 to 0.3 mg/liter.

[2] = test system: Chinook, coho salmon, rainbow trout, goldfish, fathead, minnow, banded killfish, and walleye; assay: Relative resistance of fish species in laboratory tests; type: in vivo; details: soft water, 12 C
Description: as §3

Fathead minnow [3] = assay: Laboratory fish toxicity test (Table 1); type: in vivo, Pimephales promelas; details: tech, 12 C, soft water
Description: as §1, §2, §3

Bluegill = assay: Laboratory fish toxicity test (Table 1); type: in vivo, Lepomis macrochirus; details: tech, 12 C, soft water
Description: as §1, §2, §3

Yellow perch = assay: Outdoor plastic pool test (Table 3); type: in vivo, Perca flavescens; details: for % kill: 96 hour, 50% formulation (hydrochloride salt)
Description: as §4, §1, §2, §5

Dragonfly naiad = assay: Static bioassay in invertebrates (Table 2); type: in vivo, Macromia sp.; details: 96 hours, tech, 17 C, soft reconstituted water 42 mg/l hardness
Description: (§6) The effect of the various toxicants on common invertebrate species was determined in a static test conducted 17° C. The invertebrates tested were collected from natural populations or purchased from commercial suppliers. They were held in soft water in fiberglass tanks in the laboratory or in outdoor plastic swimming pools. Mortality was observed during holding, and only healthy organisms were used for the toxicity tests. At least 10 organisms of nine species were exposed to each concentration in static tests.

Asiade clam = assay: Static bioassay in invertebrates (Table 2); type: in vivo, Corbicula sp.; details: tech, 17 C, limed spring water 22-36 mg/l hardness
Description: as §6

Banded killifish = assay: Laboratory fish toxicity test (Table 1); type: in vivo, Fundulus diaphanus; details: tech, 12 C, soft water
Description: as §1, §2, §3

Grass carp = assay: Outdoor plastic pool test (Table 3); type: in vivo, Ctenopharyngodon idella; details: for % kill: 96 hour, 50% formulation (hydrochloride salt)
Description: as §4, §1, §2, §5

Water flea = assay: Static bioassay in invertebrates (Table 2); type: in vivo; details: Daphnia magna, tech, 17 C, limed spring water 22-36 mg/l hardness
Description: as §6

Aquatic olgochaete = assay: Static bioassay in invertebrates (Table 2); type: in vivo; details: Tubifex tubifex, tech, 17 C, limed spring water 22-36 mg/l hardness
Description: as §6

Snail (Physa sp.) = assay: Static bioassay in invertebrates (Table 2); type: in vivo; details: tech, 17 C, limed spring water 22-36 mg/l hardness
Description: as §6

Seed shrimp or ostracod = assay: Static bioassay in invertebrates (Table 2); type: in vivo; details: tech, 17 C, limed spring water 22-36 mg/l hardness
Description: as §6

Snail (Pleurecera sp.) = assay: Static bioassay in invertebrates (Table 2); type: in vivo; details: tech, 17 C, limed spring water 22-36 mg/l hardness
Description: as §6

White sucker = assay: Laboratory fish toxicity test (Table 1); type: in vivo, Catostomus commersoni; details: tech, 12 C, soft water
Description: as §1, §2, §3

In the case of `CC(C)=CCC/C(C)=C/CN(C/C=C(\C)CCC=C(C)C)CCO` [N-(2-hydroxyethyl) digeranylamine], the LC50 (Brown trout; 3 hours) was 0.0955 µg/mL (≈ 0.286 µM), the LC50 (Brown trout; 6 hours) was 0.0742 µg/mL (≈ 0.222 µM) and the LC50 (Brown trout; 24 hours) was 0.0700 µg/mL (≈ 0.21 µM). For the same molecule, the LC50 (Brown trout; 96 hours) was 0.0647 µg/mL (≈ 0.194 µM), the “% kill” value (Fathead minnow [1]; 0.10 mg/l) was 0% and the “% kill” value (Fathead minnow [1]; 0.15 mg/l) was 10%. The “% kill” value (Fathead minnow [1]; 0.20 mg/l) was 10%, the “% kill” value (Fathead minnow [1]; 0.30 mg/l) was 80% and the “survival (in words)” value (Fathead minnow [1]; fathead minnows, 0.30 mg/liter and lower, 50% formulation) was “died at 0.30 mg/liter of toxicant, but all survived lower concentrations”. The “resistance relative to carp or white suckers” value [2] was “more resistant to the toxicant than carp (Caprinus carpio) or white suckers (Castostmus commersoni)”, the LC50 (Fathead minnow [3]; 6 hours) was 1.55 µg/mL (≈ 4.65 µM) and the LC50 (Fathead minnow [3]; 24 hours) was 0.560 µg/mL (≈ 1.68 µM). For the same molecule, the LC50 (Fathead minnow [3]; 96 hours) was 0.303 µg/mL (≈ 0.908 µM), the LC50 (Bluegill; 3 hours) was 1.56 µg/mL (≈ 4.68 µM) and the LC50 (Bluegill; 6 hours) was 1.13 µg/mL (≈ 3.39 µM). The LC50 (Bluegill; 24 hours) was 0.720 µg/mL (≈ 2.16 µM), the LC50 (Bluegill; 96 hours, 5760 min) was 0.72 µg/mL (≈ 2.16 µM) and the LC50 (Bluegill; 96 hours, listed as N-(2-hydroxyethyl) Digeranylamine, 5760 min) was 0.720 µg/mL (≈ 2.16 µM). For the same molecule, the “% kill” value (Yellow perch; 0.10 mg/l) was 0%, the “% kill” value (Yellow perch; 0.15 mg/l) was 30% and the “% kill” value (Yellow perch; 0.20 mg/l) was 0%. For the same molecule, the “% kill” value (Yellow perch; 0.30 mg/l) was 50%, the “survival (in words)” value (Yellow perch; yellow perch, 0.30 mg/liter and lower, 50% formulation) was “died at 0.30 mg/liter of toxicant, but all survived lower concentrations” and the LC50 (Dragonfly naiad) was 2.00 µg/mL (≈ 6 µM). For the same molecule, the LC50 (Asiade clam; 28 hours) was 56.0 µg/mL (≈ 168 µM), the LC50 (Asiade clam; 96 hours) was 9.60 µg/mL (≈ 28.8 µM) and the LC50 (Banded killifish; 3 hours) was 7.20 µg/mL (≈ 21.6 µM). For the same molecule, the LC50 (Banded killifish; 6 hours) was 2.77 µg/mL (≈ 8.3 µM), the LC50 (Banded killifish; 24 hours) was 1.32 µg/mL (≈ 3.96 µM) and the LC50 (Banded killifish; 96 hours) was 0.792 µg/mL (≈ 2.37 µM). For the same molecule, the “% kill” value (Grass carp; 0.10 mg/l) was 0%, the “% kill” value (Grass carp; 0.15 mg/l) was 0% and the “% kill” value (Grass carp; 0.20 mg/l) was 0%. For the same molecule, the “% kill” value (Grass carp; 0.30 mg/l) was 0%, the “survival (in words)” value (Grass carp; grass carp, 0.3 mg/liter, 50% formulation) was “complete survival” and the LC50 (Water flea; 1 hour) was 8 µg/mL (≈ 24 µM). The LC50 (Water flea; 3 hour) was 3.95 µg/mL (≈ 11.8 µM), the LC50 (Water flea; 6 hours) was 3 µg/mL (≈ 8.99 µM) and the LC50 (Water flea; 28 hours) was 0.8 µg/mL (≈ 2.4 µM). It also gave an LC50 (Water flea; 96 hours) of 0.16 µg/mL (≈ 0.48 µM), an LC50 (Aquatic olgochaete; 1 hour) of 4.3 µg/mL (≈ 12.9 µM) and an LC50 (Aquatic olgochaete; 3 hour) of 2.64 µg/mL (≈ 7.91 µM). The LC50 (Aquatic olgochaete; 6 hours) was 2.35 µg/mL (≈ 7.05 µM), the LC50 (Aquatic olgochaete; 28 hours) was 0.28 µg/mL (≈ 0.839 µM) and the LC50 (Aquatic olgochaete; 96 hours) was 0.054 µg/mL (≈ 0.162 µM). For the same molecule, the LC50 (Snail (Physa sp.); 1 hour) was 6.30 µg/mL (≈ 18.9 µM), the LC50 (Snail (Physa sp.); 3 hour) was 2.25 µg/mL (≈ 6.75 µM) and the LC50 (Snail (Physa sp.); 6 hours) was 0.945 µg/mL (≈ 2.83 µM). For the same molecule, the LC50 (Snail (Physa sp.); 28 hours) was 0.580 µg/mL (≈ 1.74 µM), the LC50 (Snail (Physa sp.); 96 hours) was 0.460 µg/mL (≈ 1.38 µM) and the LC50 (Seed shrimp or ostracod; 6 hours) was 3 µg/mL (≈ 8.99 µM). For the same molecule, the LC50 (Seed shrimp or ostracod; 28 hours) was 1 µg/mL (≈ 3 µM), the LC50 (Seed shrimp or ostracod; 96 hours) was 0.32 µg/mL (≈ 0.959 µM) and the LC50 (Snail (Pleurecera sp.); 28 hours) was 10.3 µg/mL (≈ 30.9 µM). For the same molecule, the LC50 (Snail (Pleurecera sp.); 96 hours) was 2.68 µg/mL (≈ 8.03 µM), the LC50 (White sucker; 3 hours) was 0.540 µg/mL (≈ 1.62 µM) and the LC50 (White sucker; 6 hours) was 0.136 µg/mL (≈ 0.408 µM). The LC50 (White sucker; 24 hours) was 0.0690 µg/mL (≈ 0.207 µM).
